Literature values, collected in patent US5043107A, “Preparation small unilamellar vesicles including polyene antifungal antibiotics” (Vestar Research, Inc., priority 1989, dated 1991).

Tests used:
[1] = Tremblay et al.
[2] = mammals; clinical use at therapeutic dose levels
[3] = in vivo

## C[C@@H]1[C@H](O)[C@@H](C)/C=C/C=C/C=C/C=C/C=C/C=C/C=C/[C@H](O[C@@H]2O[C@H](C)[C@@H](O)[C@H](N)[C@@H]2O)C[C@@H]2O[C@](O)(C[C@@H](O)C[C@@H](O)[C@H](O)CC[C@@H](O)C[C@@H](O)CC(=O)O[C@H]1C)C[C@H](O)[C@H]2C(=O)O [Amphotericin B, amphotericin B]
[1]
  acute 50% lethal dose (LD50): 2.3 mg/kg
[2]
  toxicity: acute hemolytic crisis and eventual kidney failure

## liposomal Amphotericin B
[3]
  host toxicity: decreased host toxicity
